Laboratory results published in patent US5914343A, “Compounds and methods for inhibiting hyper-proliferative cell growth” (Sugen, Inc., priority 1997, dated 1999).
In brackets after ≈: the same amount, converted by molar mass. Structures can show the parent of a compound that is named as a salt. Where two headings read alike, the source gives them in different places.

Key:
C6 glioma cells = assay: In vivo tumor inhibition: subcutaneous Xenograft model with C6 glioma cells in mice; set-up: species or system mice (BALB/c, nu/nu); conditions: for Inhibition of tumor growth (FIGS. 1, 2, and 3): IP injection, 15 mg/kg/day, AA10 and AA12 in DMSO, AA14 in PBS
Description: In vivo tumor inhibition was measured using a subcutaneous Xenograft model.
C6 cells were maintained in Ham's F10 supplemented with 10% fetal bovine serum (FBS) and 2 mM glutamine (GLN). Cells were harvested at or near confluence with 0.05% Trypsin-EDTA and pelleted at 450×g for 10 min. Pellets were resuspended in sterile PBS or media (without FBS) to a particular concentration and the cells were implanted into the hindflank of mice. Tumor growth was measured over 3 to 6 weeks using venier calipers. Tumor volumes were calculated as a product of length x width x height unless otherwise indicated. AA10 and AA12 were solubilized in 50-100 μL vehicle (DMSO) while AA14 was dissolved in PBS (pH 7.4). The compounds were delivered by IP injection at 15 mg/kg/day.
The compound was dissolved in phosphate buffered saline and the animals were treated with 30 mg/kg/day and 50 mg/kg/day.

[1] = Toxicity studies (LD50, LD10, organ damage) in mice; assay type: in vivo; conditions: mouse, in vivo
Description: (§1) Toxicity studies were carried out in animal models for AA10, AA12 and AA14. AA10 and AA12 were solubilized in DMSO and AA14 was dissolved in PBS (pH 7.4). The dosage resulting in a 50% mortality rate (LD50) and a 10% mortality rate (LD10) was determined as described below.
(§2) Five mice (BALB/c) were treated with different concentrations of compound. […] The LD50 was calculated from a plot of % mortality versus dose (log M) using a four parameter logistic equation.
(§3) At the end of the experiment an animal from each study administered with 100 mg/kg of compound was sacrificed and pathologically analyzed for organ damage.

mice (BALB/c) = assay: as above; assay type: in vivo
Description: as §1, §2, §3

Solubility of compounds = assay type: physicochemical
[2] = Stability compared with leflunomide; assay type: physicochemical
C6 cells = assay: In vitro tumor inhibition: anchorage-dependent C6 cell growth assay (sulforhodamine B); assay type: cell-based; conditions: for IC50: Rattus norvegicus, C6 cells, 2000 cells/well, 4 days, 37° C., SRB stain
Description: The assay measures protein content of acid-fixed cells using the counterion binding dye sulforhodamine B (SRB, Sigma).
AA10 and AA12 were solubilized in DMSO (Sigma, cell culture grade), and AA14 was dissolved in PBS (pH 7.4), the compounds were diluted into appropriate growth medium at two-fold the desired final assay concentration.
Compound (100 μL) was added to 96-well plates containing attached cellular monolayers C6 cells (2000 cells/well in 100 μL). After 4 days (37° C., 5% CO2) the monolayers were washed 3 times with PBS and fixed with 200 μL ice-cold 10% trichloroacetic acid (TCA) (Fisher Scientific), and kept at 4° C. for 60 minutes. The TCA was removed and the fixed monolayers were washed 5 times with tap water and allowed to dry completely at room temperature on absorbent paper. The cellular protein was stained for 10 min with 100 μL 0.4% SRB dissolved in 1% acetic acid. After 5 washes with tap water, the dye was solubilized in 10 mM Tris base (100 μL per well) and absorbance read at 570 nm on a Dynatech plate reader model MR5000. Growth inhibition data are expressed as aL percentage of absorbance detected in control wells which were treated with 0.4% DMSO or PBS alone. […] IC50 values were determined using a four parameter curve fit function.

[3] = tested on: autoimmune animal diseases; conditions: Bartlett R. R. et al., Agents and Actions 32:10-21 (1991); cited from earlier work
[4] = mice (BALB/c), observed 7 to 14 days after last dose, AA10 and AA12 in DMSO, AA14 in PBS
[5] = organic solvent or mixture, in DMSO, read-out: Solubility in DMSO

## CC(O)=C(C#N)C(=S)Nc1ccc(C(F)(F)F)cc1.[Na]
C6 glioma cells; 30 mg/kg/day and 50 mg/kg/day in phosphate buffered saline
  Tumor inhibition at higher AA14 concentrations (FIG. 4): increased tumor inhibition
C6 glioma cells
  Inhibition of tumor growth (FIGS. 1, 2, and 3): inhibit tumor growth
[1]
  LD50: 145 mg/kg
Mice (BALB/c); mouse, in vivo
  LD10: 120 mg/kg
Solubility of compounds; AA14 compared with leflunomide and its hydroxycrotonamide metabolite
  Solubility in PBS (in words): soluble in PBS
Solubility of compounds; aqueous buffer, in PBS (phosphate buffered saline at pH 7.4), read-out: Solubility in PBS
  solubility: 275 mg/mL

## Cc1oncc1C(=S)Nc1ccc(C(F)(F)F)cc1 [AA10, 5-Methyl-4-(4-trifluoromethylphenyl)aminothiocarbonylisoxazole]
C6 glioma cells
  Inhibition of tumor growth (FIGS. 1, 2, and 3): inhibit tumor growth
[2]
  Stability compared with leflunomide: appears to be more stable than leflunomide
C6 cells
  Inhibition of hyper-proliferative cell growth (in words): able to inhibit hyper-proliferative cell growth
C6 cells; 96 h
  IC50: 2 µM
[1]; [4]
  LD50: 96 mg/kg
Mice (BALB/c); [4]
  LD10: 77 mg/kg
Solubility of compounds; in ethanol
  Solubility in ethanol compared with leflunomide: more soluble in ethanol
Solubility of compounds; [5]
  solubility: ≥ 1000 mg/mL

## CC(O)=C(C#N)C(=S)Nc1ccc(C(F)(F)F)cc1 [AA12, 1-Cyano-2-hydroxy-1-(4-trifluoromethylphenyl)aminothiocarbonylpropene]
C6 glioma cells
  Inhibition of tumor growth (FIGS. 1, 2, and 3): inhibit tumor growth
C6 cells
  Inhibition of hyper-proliferative cell growth (in words): able to inhibit hyper-proliferative cell growth
C6 cells; 96 h
  IC50: 0.8 µM
[1]; [4]
  LD50: 79 mg/kg
Mice (BALB/c); [4]
  LD10: 62 mg/kg
Solubility of compounds; [5]
  solubility: 400 mg/mL (≈ 1400 mM)

## CC(O)=C(C#N)S(=O)(=O)Nc1ccc(C(F)(F)F)cc1 [AA17, 1-Cyano-2-hydroxy-1-(4-trifluoromethylphenylaminosulfonyl)propene]
C6 cells; 96 h
  IC50: 30 µM

## CC(O)=C(C#N)S(=O)(=O)Nc1ccc(C(F)(F)F)cc1 [AA18, 1-cyano-2-hydroxy-1-(4-trifluoromethylphenylaminosulfonyl)propene sodium salt]
C6 cells; C6, 96 h
  IC50: 24 µM

## N#CC(C(=S)Nc1ccc(C(F)(F)F)cc1)=C(O)C1CC1 [Compound 3, 3-cyclopropyl-3-hydroxy-2-[(4-trifluoromethylphenyl)aminothiocarbonyl]acrylonitrile]
C6 cells; 96 h
  IC50: < 1 µM

## C=C(C)C(O)=C(C#N)C(=S)Nc1ccc(C(F)(F)F)cc1 [Compound 6, 3-hydroxy-3-(propen-2-yl)-2-[[4-(trifluoro-methyl)-phenyl]aminothiocarbonyl]acrylonitrile]
C6 cells; 96 h
  IC50: 31.2 µM

## CC(O)=C(C#N)C(=S)Nc1ccc(F)cc1Br [Compound 7, 3-hydroxy-3-methyl-2-[(2-bromo-4-fluorophenyl)aminothiocarbonyl]acrylonitrile]
C6 cells; 96 h
  IC50: 36.7 µM

## CC(O)=C(C#N)C(=S)Nc1ccccc1C(F)(F)F [Compound 12, 3-hydroxy-3-methyl-2-[[2-(trifluoromethyl)-phenyl]aminothiocarbonyl]acrylonitrile]
C6 cells; 96 h
  IC50: > 100 µM

## CC(O)=C(C#N)C(=S)Nc1cccc(C(F)(F)F)c1 [Compound 17, 3-hydroxy-3-methyl-2-[[3-(trifluoromethyl)phenyl]aminothiocarbonyl]acrylonitrile]
C6 cells; 96 h
  IC50: 15.2 µM

## CC(O)=C(C#N)C(=S)Nc1ccc(S(=O)(=O)N2CCCCC2)cc1 [Compound 22, 3-hydroxy-3-methyl-2-[[4-(piperidine-1-sulfonyl)-phenyl]aminothiocarbonyl]acrylonitrile]
C6 cells; 96 h
  IC50: 24.3 µM

## CC(O)=C(C#N)C(=S)Nc1ccc(S(N)(=O)=O)cc1 [Compound 27, 3-hydroxy-3-methyl-2-[[4-(aminosulfonyl)phenyl]aminothiocarbonyl]acrylonitrile]
C6 cells; 96 h
  IC50: > 20 µM

## CC(O)=C(C#N)C(=S)Nc1cccc(Cl)c1Cl [Compound 32, 3-hydroxy-3-methyl-2-[(2,3-dichlorophenyl)aminothiocarbonyl]acrylonitrile]
C6 cells; 96 h
  IC50: 35.3 µM

## CC(O)=C(C#N)C(=S)Nc1ccc(Cl)c(Cl)c1 [Compound 37, 3-hydroxy-3-methyl-2-[(3,4-dichlorophenyl)-aminothiocarbonyl]acrylonitrile]
C6 cells; 96 h
  IC50: 6.1 µM

## CC(O)=C(C#N)C(=S)Nc1ccc(Cl)cc1Cl [Compound 42, 3-hydroxy-3-methyl-2-[(2,4-dichlorophenyl)aminothiocarbonyl]acrylonitrile]
C6 cells; 96 h
  IC50: 53.3 µM

## Cc1oncc1C(=O)Nc1ccc(C(F)(F)F)cc1 [leflunomide, 5-methylisoxazole-4 carboxylic acid-(4-trifluromethyl)-anilide, reference compound]
[3]
  Preventing and curing autoimmune animal diseases: very effective in preventing and curing several autoimmune animal diseases
